Results published in PubChem BioAssay (NCI).
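Values below derive from 48-hour exposures of cells grown in 96-well plates, with endpoints linearly interpolated between the two concentrations bracketing the appropriate inhibition level. At the GI50, growth is halved. TGI: concentration producing complete growth inhibition.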

Experiments:
Assay in all cases: growth of human tumour cells (NCI), 48 h
[1] = system: NCI-H226 lung
[2] = system: HCT-116 colon
[3] = system: SF-268 CNS
[4] = system: 786-0 renal
[5] = system: SK-MEL-28 melanoma
[6] = system: EKVX NSCLC
[7] = system: UO-31 renal
[8] = system: OVCAR-8 ovarian
[9] = system: RPMI-8226 leukemia
[10] = system: SK-MEL-5 melanoma
[11] = system: KM12 colon
[12] = system: T-47D breast
[13] = system: RXF 393 renal
[14] = system: IGROV1 ovarian
[15] = system: SNB-19 CNS
[16] = system: U251 CNS
[17] = system: SK-OV-3 ovarian
[18] = system: NCI-H23 lung
[19] = system: OVCAR-3 ovarian
[20] = system: M14 melanoma
[21] = system: BT-549 breast
[22] = system: HOP-92 NSCLC
[23] = system: ACHN renal
[24] = system: HOP-62 NSCLC
[25] = system: K-562 leukemia
[26] = system: HL-60(TB) leukemia
[27] = system: OVCAR-5 ovarian
[28] = system: A549 NSCLC
[29] = system: SF-295 CNS
[30] = system: HCC-2998 colon
[31] = system: NCI-H460 lung
[32] = system: OVCAR-4 ovarian
[33] = system: MALME-3M melanoma
[34] = system: SNB-75 CNS
[35] = system: SK-MEL-2 melanoma
[36] = system: NCI/ADR-RES ovarian
[37] = system: DU-145 prostate
[38] = system: CCRF-CEM leukemia
[39] = system: TK-10 renal
[40] = system: HT29 colon
[41] = system: SR leukemia
[42] = system: A498 renal
[43] = system: UACC-62 melanoma
[44] = system: MDA-MB-435
[45] = system: NCI-H522 lung
[46] = system: COLO 205 colon
[47] = system: HCT-15 colon
[48] = system: MDA-MB-231 breast
[49] = system: SW-620 colon
[50] = system: MCF7 breast
[51] = system: MOLT-4 leukemia
[52] = system: HS 578T breast
[53] = system: CAKI-1 renal
[54] = system: SF-539 CNS
[55] = system: PC-3 prostate
[56] = system: SN12C renal
[57] = system: LOX IMVI melanoma

SMILES: CC/C=C\C/C=C\C[C@H](O)C/C=C1/C(=O)C=C[C@H]1C/C=C\CCC(=O)OC
- GI50 [1]: 2.32 µM
- TGI [1]: > 8.25 µM
- GI50 [2]: 1.55 µM
- TGI [2]: 3.15 µM
- GI50 [3]: 3.04 µM
- TGI [3]: > 8.25 µM
- GI50 [4]: 3.53 µM
- TGI [4]: > 8.25 µM
- GI50 [5]: 2.85 µM
- TGI [5]: > 8.25 µM
- GI50 [6]: > 8.25 µM
- TGI [6]: > 8.25 µM
- GI50 [7]: 7.58 µM
- TGI [7]: > 8.25 µM
- GI50 [8]: 2.51 µM
- TGI [8]: > 8.25 µM
- GI50 [9]: 1.59 µM
- TGI [9]: 5.01 µM
- GI50 [10]: 1.94 µM
- TGI [10]: 6.21 µM
- GI50 [11]: 2.2 µM
- TGI [11]: > 8.25 µM
- GI50 [12]: 2.93 µM
- TGI [12]: > 8.25 µM
- GI50 [13]: 4.99 µM
- TGI [13]: > 8.25 µM
- GI50 [14]: > 8.25 µM
- TGI [14]: > 8.25 µM
- GI50 [15]: 7.76 µM
- TGI [15]: > 8.25 µM
- GI50 [16]: 2.66 µM
- TGI [16]: > 8.25 µM
- GI50 [17]: > 8.25 µM
- TGI [17]: > 8.25 µM
- GI50 [18]: 2.06 µM
- TGI [18]: 6.67 µM
- GI50 [19]: 2.08 µM
- TGI [19]: 7.71 µM
- GI50 [20]: 6.11 µM
- TGI [20]: > 8.25 µM
- GI50 [21]: 2.78 µM
- TGI [21]: > 8.25 µM
- GI50 [22]: > 8.25 µM
- TGI [22]: > 8.25 µM
- GI50 [23]: 3.06 µM
- TGI [23]: > 8.25 µM
- GI50 [24]: 3.17 µM
- TGI [24]: > 8.25 µM
- GI50 [25]: 2.26 µM
- TGI [25]: > 8.25 µM
- GI50 [26]: 2.49 µM
- TGI [26]: > 8.25 µM
- GI50 [27]: 5 µM
- TGI [27]: > 8.25 µM
- GI50 [28]: > 8.25 µM
- TGI [28]: > 8.25 µM
- GI50 [29]: > 8.25 µM
- TGI [29]: > 8.25 µM
- GI50 [30]: 1.6 µM
- TGI [30]: 3.39 µM
- GI50 [31]: > 8.25 µM
- TGI [31]: > 8.25 µM
- GI50 [32]: > 8.25 µM
- TGI [32]: > 8.25 µM
- GI50 [33]: 2.2 µM
- TGI [33]: > 8.25 µM
- GI50 [34]: > 8.25 µM
- TGI [34]: > 8.25 µM
- GI50 [35]: > 8.25 µM
- TGI [35]: > 8.25 µM
- GI50 [36]: 3.74 µM
- TGI [36]: > 8.25 µM
- GI50 [37]: 4.95 µM
- TGI [37]: > 8.25 µM
- GI50 [38]: 2.31 µM
- TGI [38]: 7.8 µM
- GI50 [39]: > 8.25 µM
- TGI [39]: > 8.25 µM
- GI50 [40]: 2.68 µM
- TGI [40]: 6.79 µM
- GI50 [41]: 1.61 µM
- TGI [41]: > 8.25 µM
- GI50 [42]: > 8.25 µM
- TGI [42]: > 8.25 µM
- GI50 [43]: 1.79 µM
- TGI [43]: 7.16 µM
- GI50 [44]: 2.35 µM
- TGI [44]: > 8.25 µM
- GI50 [45]: 1.39 µM
- TGI [45]: 3.42 µM
- GI50 [46]: 3.87 µM
- TGI [46]: > 8.25 µM
- GI50 [47]: 1.85 µM
- TGI [47]: 6.47 µM
- GI50 [48]: 3.5 µM
- TGI [48]: > 8.25 µM
- GI50 [49]: 2.19 µM
- TGI [49]: > 8.25 µM
- GI50 [50]: 2.43 µM
- TGI [50]: > 8.25 µM
- GI50 [51]: 2.93 µM
- TGI [51]: > 8.25 µM
- GI50 [52]: 7.66 µM
- TGI [52]: > 8.25 µM
- GI50 [53]: 6.01 µM
- TGI [53]: > 8.25 µM
- GI50 [54]: 2.82 µM
- TGI [54]: > 8.25 µM
- GI50 [55]: 3.75 µM
- TGI [55]: > 8.25 µM
- GI50 [56]: 2.62 µM
- TGI [56]: > 8.25 µM
- GI50 [57]: 1.36 µM
- TGI [57]: 2.85 µM
